Experiments:
BMDC [1] = experiment: Vaccine adjuvant activity in Balb/c mouse BMDC assessed as increase in IL-12 production at 10 uM incubated for 20 hrs by ELISA (reference value: 1.35 +/-0.1 ng/ml); format: functional
[2] = Cytotoxicity against Balb/c mouse BMDC assessed as cell viability at 10 uM incubated for 20 hrs by MTT assay (reference value: 100 +/-0.6%); format: toxicity, cell-based; settings: BMDC (bone marrow-derived dendritic cells), read-out: Activity
BMDC [3] = experiment: Vaccine adjuvant activity in Balb/c mouse BMDC assessed as induction of Ca2+ influx at 10 uM by Fura-2/8-AM dye based fluorescence analysis (reference value: 0%); format: functional
THP-1 = experiment: Vaccine adjuvant activity in human THP-1 cells expressing CD63-Turbo-luciferase and CD9-Emerald green fluorescent protein reporter assessed as extracellular vesicle release by measuring reporter activation at 10 uM incubated for 48 hrs by TurboLuc luciferase based chemiluminescence assay (reference value: 0%); format: functional

Row | Compound | Activity (BMDC [1]) [ng/mL] | viability at 20 h, 10 µM [2] [%] | Activity (BMDC [3]) [%] | Activity (THP-1) [%]
1 | Cc1sc(NS(=O)(=O)c2cccc3nsnc23)c(C(=O)Oc2ccccc2)c1C | 1.58 | 107 | 85.3 | 39.8
2 | CCOC(=O)c1c(NS(=O)(=O)c2cccc3nsnc23)sc(-c2cccnc2)c1C | 1.05 | 85.5 | 11.8 | 75.3
3 | CCOC(=O)c1c(NS(=O)(=O)c2ccc(Br)c3nsnc23)sc(C)c1C | 1.9 | 96.3 | 73.6 | 70.3
4 | CCOC(=O)c1c(NS(=O)(=O)c2cccc3nsnc23)sc(Br)c1C | 1.03 | 104 | 102.9 | 81.1
5 | CCCCCCOC(=O)c1c(NS(=O)(=O)c2cccc3nsnc23)sc(C)c1C | 3.44 | 106 | 245 | 185.3
6 | Cc1sc(NS(=O)(=O)c2cccc3nsnc23)c(C(=O)OC(C)C)c1C | 3 | 132 | 178.4 | 149.2
7 | Cc1sc(NS(=O)(=O)c2cccc3nsnc23)c(C(=O)OCCCCCN)c1C | 1.43 | 103 | -2.6 | 0.7
8 | CCOC(=O)c1c(NS(=O)(=O)c2cccc3nsnc23)sc2c1CCCC2 | 1.83 | 114 | 102.1 | 156.9
9 | CCOC(=O)c1c(NS(=O)(=O)c2cccc3nsnc23)sc2c1CCNC2 | 0.72 | 94.8 | -35.3 | 0.1
10 | CCOC(=O)c1c(NS(=O)(=O)c2cccc3nsnc23)sc(-c2cccs2)c1C | 1.03 | 77 | 100.6 | 17.9
11 | CCOC(=O)c1c(NS(=O)(=O)c2cccc3nonc23)sc(C)c1C | 1.47 | 105 | -12.5 | 4.7
12 | Cc1sc(NS(=O)(=O)c2cccc3nsnc23)c(C(=O)OCc2ccccc2)c1C | 2.74 | 128 | 175.5 | 169.9
13 | CCOC(=O)c1c(NS(=O)(=O)c2cccc3nsnc23)sc(-c2ccco2)c1C | 2.56 | 98.7 | 134.2 | 67.1
14 | CCOC(=O)c1c(NS(=O)(=O)c2cccc3c2NCCN3)sc(C)c1C | 1.06 | 89.3 | 2 | 2.7
15 | CCCOC(=O)c1c(NS(=O)(=O)c2cccc3nsnc23)sc(C)c1C | 3.5 | 140 | 147.4 | 156.3
16 | CCOC(=O)c1c(NS(=O)(=O)c2ccc3nsnc3c2)sc(C)c1C | 0.63 | 93.1 | -12.7 | 0.2
17 | CCOC(=O)c1c(N(C)S(=O)(=O)c2cccc3nsnc23)sc(C)c1C | 1.19 | 108 | -39.3 | -2
18 | CCOC(=O)c1c(NS(=O)(=O)c2cccc3ncccc23)sc(C)c1C | 1.1 | 117 | -13.3 | 0
19 | CCOC(=O)c1c(NS(=O)(=O)c2cccc3nsnc23)sc2c1CCC2 | 1.85 | 127 | 121 | 94.9
20 | CCOC(=O)c1c(NS(=O)(=O)c2cccc3nsnc23)sc(-c2ccoc2)c1C | 1.18 | 82.8 | 94.7 | 114.4
21 | CCOC(=O)c1c(NS(=O)(=O)c2cccc3nc(C)[nH]c23)sc(C)c1C | 1.42 | 108 | -13.1 | 3.4
22 | CCOC(=O)c1c(NS(=O)(=O)c2cccc3nsnc23)sc(-c2ccccn2)c1C | 1.01 | 68.1 | 8.1 | 30.5
23 | Cc1sc(NS(=O)(=O)c2cccc3nsnc23)c(C(=O)OC(C)(C)C)c1C | 3.17 | 118 | 136.7 | 128.8
24 | CCOC(=O)c1c(NS(=O)(=O)c2cccc3nn[nH]c23)sc(C)c1C | 2.11 | 102 | -9.6 | -0.7
25 | CCOC(=O)c1c(NS(=O)(=O)c2cccc3nsnc23)sc2c1CCN(C(=O)OC(C)(C)C)C2 | 2.27 | 104 | 79.2 | 100.4

Row | Compound | Activity (BMDC [1]) [ng/mL] | viability at 20 h, 10 µM [2] [%] | Activity (BMDC [3]) [%] | Activity (THP-1) [%]
26 | CCOC(=O)c1c(NS(=O)(=O)c2cccc3nsnc23)sc2c1CCN(CC)C2 | 1.84 | 108 | -10.8 | 1.3
27 | CCOC(=O)c1nc(C)sc1NS(=O)(=O)c1cccc2nsnc12 | 0.92 | 93.3 | -7.9 | 1.7
28 | Cc1cc(NS(=O)(=O)c2cccc3nsnc23)sc1C | 1.4 | 113 | -11.4 | -0.9
29 | CCOC(=O)c1c(NS(=O)(=O)c2cccc3cccnc23)sc(C)c1C | 2 | 110 | 99.7 | 60.4
30 | CCOC(=O)c1c(NS(=O)(=O)c2cccc3nc[nH]c23)sc(C)c1C | 1.51 | 111 | -14.2 | 2
31 | CCOC(=O)c1c(NS(=O)(=O)c2cccc3nsnc23)sc(C)c1CC | 2.27 | 100 | 117.6 | 112
32 | CCOC(=O)c1c(C)cccc1NS(=O)(=O)c1cccc2nsnc12 | 1.14 | 88.8 | -14.2 | 1
33 | Cc1sc(NS(=O)(=O)c2cccc3nsnc23)c(C(=O)O)c1C | 1.43 | 105 | -31.3 | -1.3
34 | CCOC(=O)c1cc(C)sc1NS(=O)(=O)c1cccc2nsnc12 | 0.81 | 93 | 78.5 | 106.9
35 | Cc1sc(NS(=O)(=O)c2cccc3nsnc23)c(C(=O)OCCC(C)C)c1C | 2.87 | 81.2 | 262.4 | 141.6
36 | Cc1sc(NS(=O)(=O)c2cccc3nsnc23)c(C(=O)OCCCCCNC(=O)OC(C)(C)C)c1C | 4.14 | 183 | 103.9 | 111.5
37 | CCOC(=O)c1c(NS(=O)(=O)c2cccc(N)c2N)sc(C)c1C | 1.39 | 107 | -6.8 | 2.4
38 | CCOC(=O)c1ncsc1NS(=O)(=O)c1cccc2nsnc12 | 1.04 | 91.3 | -6.4 | 1.3
39 | CCOC(=O)c1ccsc1NS(=O)(=O)c1cccc2nsnc12 | 0.48 | 72.5 | 58.3 | 60.9
40 | CCOC(=O)c1c(NS(=O)(=O)c2cccc3nsnc23)sc2ccccc12 | 1.11 | 99.1 | 97 | 98.3
41 | CCOC(=O)c1c(C)csc1NS(=O)(=O)c1cccc2nsnc12 | 1.12 | 100 | 76.7 | 99
42 | CCOC(=O)c1c(NS(=O)(=O)c2cccc3nc(O)[nH]c23)sc(C)c1C | 0.59 | 88.1 | -14.3 | 0.4
43 | COC(=O)c1c(NS(=O)(=O)c2cccc3nsnc23)sc(C)c1C | 1.75 | 114 | 83.6 | 30.1
44 | CCOC(=O)c1sc(C)c(C)c1NS(=O)(=O)c1cccc2nsnc12 | 1.67 | 130 | 74.2 | 154.1
45 | CCNC(=O)c1c(NS(=O)(=O)c2cccc3nsnc23)sc(C)c1C | 1.7 | 100 | -28.3 | -0.6
46 | CCOC(=O)c1cc(C)ccc1NS(=O)(=O)c1cccc2nsnc12 | 1.22 | 60.1 | -11.5 | 10.8
47 | CCOC(=O)c1c(NS(=O)(=O)c2cccc3ccncc23)sc(C)c1C | 1.12 | 87.5 | 4.1 | 3.6
48 | CCOC(=O)c1c(NS(=O)(=O)c2cccc3nsnc23)sc(C)c1-c1ccccc1 | 1.45 | 94.2 | 69.1 | 49.6
49 | CCOC(=O)c1c(NS(=O)(=O)c2ccc(Br)c3ccncc23)sc(C)c1C | 1.12 | 82.7 | -9.4 | 16.1
